Like-named read-outs stand apart in the source and are kept apart here.

This test deals with SIK2 (Homo sapiens, UniProt Q9H0K1). As to the kind of experiment: SIK2 Enzymatic Assay High Version 2 (High ATP). In kind it is biochemical. An outline of the steps:
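At room temperature, enzyme (6 nM, 2× final) was preincubated with compound for 30 min, then 6 mM ATP and 400 μM HDAC5tide (both 2× final) were added for 2 h. ADP formed was measured by ADP-Glo Max (2 h reagent, 1 h detection) using luminescence.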

Where [1] appears, read: enzyme 6 nM, 6 mM ATP and 400 μM HDAC5tide (each 2× final concentration), 30 minutes pre-incubation, 2 hours, ADP-Glo Max luminescence, read-out: SIK2 high ATP IC50 (μM) (Test Example 2).

Chain of SIK2 (Q9H0K1 whole entry, species assumed): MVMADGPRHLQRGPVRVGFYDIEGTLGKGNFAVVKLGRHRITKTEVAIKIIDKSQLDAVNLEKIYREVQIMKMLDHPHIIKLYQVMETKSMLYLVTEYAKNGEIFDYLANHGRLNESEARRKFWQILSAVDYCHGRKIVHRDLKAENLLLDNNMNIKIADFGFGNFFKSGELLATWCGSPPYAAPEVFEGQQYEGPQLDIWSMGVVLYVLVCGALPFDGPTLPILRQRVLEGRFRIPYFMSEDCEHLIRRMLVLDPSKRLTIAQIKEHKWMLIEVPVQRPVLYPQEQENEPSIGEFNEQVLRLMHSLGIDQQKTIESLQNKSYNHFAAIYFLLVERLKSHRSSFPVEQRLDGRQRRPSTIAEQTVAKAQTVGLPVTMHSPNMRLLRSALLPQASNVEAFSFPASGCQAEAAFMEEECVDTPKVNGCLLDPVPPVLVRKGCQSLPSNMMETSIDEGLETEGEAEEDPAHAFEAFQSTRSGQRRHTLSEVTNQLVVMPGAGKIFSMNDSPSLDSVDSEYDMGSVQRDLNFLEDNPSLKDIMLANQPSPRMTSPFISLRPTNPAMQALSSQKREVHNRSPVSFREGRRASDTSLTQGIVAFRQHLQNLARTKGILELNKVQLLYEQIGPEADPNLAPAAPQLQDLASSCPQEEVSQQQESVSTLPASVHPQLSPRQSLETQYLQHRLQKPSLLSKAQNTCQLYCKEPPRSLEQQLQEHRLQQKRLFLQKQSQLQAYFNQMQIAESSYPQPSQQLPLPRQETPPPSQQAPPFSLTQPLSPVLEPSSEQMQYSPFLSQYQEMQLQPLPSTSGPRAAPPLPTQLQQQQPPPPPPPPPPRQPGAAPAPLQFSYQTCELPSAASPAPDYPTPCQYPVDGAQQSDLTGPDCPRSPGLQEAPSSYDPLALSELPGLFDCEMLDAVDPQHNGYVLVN

The compound `Cc1cc(-c2ccn3nc(Nc4cc(C(=O)NC(C)C)n(C)n4)cc3c2)c(O[C@H]2C[C@H]3COC[C@@H](C2)N3)cn1` [Example 341, N-isopropyl-2-methyl-5-[[5-[2-methyl-5-[[(1S,5R)-3-oxa-9-azabicyclo[3.3.1]nonan-7-yl]oxy]-4-pyridyl]pyrazolo[1,5-a]pyridin-2-yl]amino]pyrazole-3-carboxamide] gave an IC50 of under 0.000847 µM.
Still for that read-out and setting: with `Cc1cc(-c2ccn3nc(Nc4cc(C)nc(C)n4)cc3c2)c(OC[C@@H]2COC(=O)N2)cn1` [Example 342, (4R)-4-[[4-[2-[(2,6-dimethylpyrimidin-4-yl)amino]pyrazolo[1,5-a]pyridin-5-yl]-6-methyl-3-pyridyl]oxymethyl]oxazolidin-2-one] the figure was 0.032 µM.
As for `Cc1cc(-c2ccn3nc(Nc4cc(C)nc(C)n4)cc3c2)c(O[C@H]2CC[C@H](C(N)=O)CC2)cn1` [Example 343, 4-[[4-[2-[(2,6-dimethylpyrimidin-4-yl)amino]pyrazolo[1,5-a]pyridin-5-yl]-6-methyl-3-pyridyl]oxy]cyclohexanecarboxamide], the half-maximal inhibitory concentration (IC50) under setting [1] turned out to be 0.0376 µM.
On to `Cc1cc(-c2ccn3nc(Nc4cc(C)nc(C)n4)cc3c2)c(O[C@@H]2CCS(=O)(=O)C2)cn1` [Example 344, N-(2,6-dimethylpyrimidin-4-yl)-5-[5-[(3R)-1,1-dioxothiolan-3-yl]oxy-2-methyl-4-pyridyl]pyrazolo[1,5-a]pyridin-2-amine], for which the IC50 under setting [1] amounted to 0.00362 µM.
Still for that read-out and setting: with `Cc1cc(-c2ccn3nc(Nc4ccc(C(=O)NC(C)C)c(C)c4)cc3c2)c(OCC(C)(C)O)cn1` [Example 345, 4-[[5-[5-(2-hydroxy-2-methyl-propoxy)-2-methyl-4-pyridyl]pyrazolo[1,5-a]pyridin-2-yl]amino]-N-isopropyl-2-methyl-benzamide] the figure was 0.0306 µM.
Consider `Cc1cc(-c2cn3cc(Nc4cc(C)nc(C)n4)nc3cn2)c(OC2C[C@H]3COC[C@@H](C2)N3C)cn1` (stereo partly drawn) [Example 349, N-(2,6-dimethylpyrimidin-4-yl)-6-[2-methyl-5-[[(1R,5S)-9-methyl-3-oxa-9-azabicyclo[3.3.1]nonan-7-yl]oxy]-4-pyridyl]imidazo[1,2-a]pyrazin-2-amine], for which the half-inhibitory concentration (IC50) is under 0.000847 µM.
The same measure, in the same setting: with `Cc1cc(-c2cn3cc(Nc4cc(C)nc(C)n4)nc3cn2)c(O[C@H]2C[C@H]3COC[C@@H](C2)N3)cn1` [Example 350, N-(2,6-dimethylpyrimidin-4-yl)-6-[2-methyl-5-[[(1R,5S)-3-oxa-9-azabicyclo[3.3.1]nonan-7-yl]oxy]-4-pyridyl]imidazo[1,2-a]pyrazin-2-amine] the figure was 0.0403 µM.
On the same count and under the same terms, with `CNC(=O)c1ccc(Nc2cc3cc(-c4cc(C)ncc4O[C@H]4C[C@H]5COC[C@@H](C4)N5C(C)=O)ccn3n2)nc1` [Example 356, 6-[[5-[5-[[(1S,5R)-9-acetyl-3-oxa-9-azabicyclo[3.3.1]nonan-7-yl]oxy]-2-methyl-4-pyridyl]pyrazolo[1,5-a]pyridin-2-yl]amino]-N-methyl-pyridine-3-carboxamide] the figure was under 0.000847 µM; with `CNC(=O)c1c(OC)cc(Nc2cc3cc(-c4cc(C)ncc4OC4C[C@H]5COC[C@@H](C4)N5)ccn3n2)cc1OC` (stereo partly drawn) [Example 357, 2,6-dimethoxy-N-methyl-4-[[5-[2-methyl-5-[[(1S,5R)-3-oxa-9-azabicyclo[3.3.1]nonan-7-yl]oxy]-4-pyridyl]pyrazolo[1,5-a]pyridin-2-yl]amino]benzamide], 0.00101 µM.
As to `CNC(=O)c1c(C)cc(Nc2cc3cc(-c4cc(C)ncc4O[C@H]4C[C@H]5COC[C@@H](C4)N5C(C)=O)ccn3n2)nc1C` [Example 358, 6-[[5-[5-[[(1R,5S,7s)-9-acetyl-3-oxa-9-azabicyclo[3.3.1]nonan-7-yl]oxy]-2-methyl-4-pyridyl]pyrazolo[1,5-a]pyridin-2-yl]amino]-N,2,4-trimethyl-pyridine-3-carboxamide], the IC50 came to 0.00783 µM.
Take `Cc1cc(-c2ccn3nc(Nc4cc(C)nc(C)n4)cc3c2)c(OCC(C)(C)N)cn1` [Example 359, 5-[5-(2-amino-2-methyl-propoxy)-2-methyl-4-pyridyl]-N-(2,6-dimethylpyrimidin-4-yl)pyrazolo[1,5-a]pyridin-2-amine]: the 50% inhibitory concentration (IC50) under setting [1] was 0.0271 µM.
Take `CC(=O)NC(C)(C)COc1cnc(C)cc1-c1ccn2nc(Nc3cc(C)nc(C)n3)cc2c1` [Example 360, N-[2-[[4-[2-[(2,6-dimethylpyrimidin-4-yl)amino]pyrazolo[1,5-a]pyridin-5-yl]-6-methyl-3-pyridyl]oxy]-1,1-dimethyl-ethyl]acetamide]: under setting [1], the 50% inhibitory concentration (IC50) worked out at 0.0058 µM.
The same measure, in the same setting: with `Cc1cc(-c2ccn3nc(Nc4cc(C)nc(C)n4)cc3c2)c(OCC(C)(C)NS(C)(=O)=O)cn1` [Example 361, N-[2-[[4-[2-[(2,6-dimethylpyrimidin-4-yl)amino]pyrazolo[1,5-a]pyridin-5-yl]-6-methyl-3-pyridyl]oxy]-1,1-dimethyl-ethyl]methanesulfonamide] the figure was 0.00703 µM.
Consider `CC#Cc1cc(-c2ccn3nc(Nc4cc(C)nc(C)n4)cc3c2)c(N[C@H]2CC[C@@H](O)CC2)cn1` [Example 362, 4-[[4-[2-[(2,6-dimethylpyrimidin-4-yl)amino]pyrazolo[1,5-a]pyridin-5-yl]-6-prop-1-ynyl-3-pyridyl]amino]cyclohexanol], for which the IC50 under setting [1] stood at 0.016 µM.
The compound `Cc1cc(-c2ccn3nc(Nc4cc(C)nc(C)n4)cc3c2)c(OC[C@@H]2CN(C)C(=O)N2)cn1` [Example 365, (4S)-4-[[4-[2-[(2,6-dimethylpyrimidin-4-yl)amino]pyrazolo[1,5-a]pyridin-5-yl]-6-methyl-3-pyridyl]oxymethyl]-1-methyl-imidazolidin-2-one] returned a concentration for half-maximal inhibition (IC50) of under 0.000847 µM.
On the same count and under the same terms, with `Cc1cc(-c2ccn3nc(Nc4cccc(C(F)(F)F)n4)cc3c2)c(O[C@H]2C[C@H]3COC[C@@H](C2)N3)cn1` [Example 366, 5-[2-methyl-5-[[(1S,5R, 7s)-3-oxa-9-azabicyclo[3.3.1]nonan-7-yl]oxy]-4-pyridyl]-N-[6-(trifluoromethyl)-2-pyridyl]pyrazolo[1,5-a]pyridin-2-amine] the figure was 0.00156 µM; with `CNC(=O)c1cccc(Nc2cc3cc(-c4cc(C)ncc4O[C@H]4C[C@H]5COC[C@@H](C4)N5)ccn3n2)n1` [Example 367, N-methyl-6-[[5-[2-methyl-5-[[(1S,5R,7s)-3-oxa-9-azabicyclo[3.3.1]nonan-7-yl]oxy]-4-pyridyl]pyrazolo[1,5-a]pyridin-2-yl]amino]pyridine-2-carboxamide], 0.00681 µM; with `Cc1cc(-c2ccn3nc(Nc4ccnnc4)cc3c2)c(O[C@H]2C[C@H]3COC[C@@H](C2)N3)cn1` [Example 368, 5-[2-methyl-5-[[(1S,5R,7s)-3-oxa-9-azabicyclo[3.3.1]nonan-7-yl]oxy]-4-pyridyl]-N-pyridazin-4-yl-pyrazolo[1,5-a]pyridin-2-amine], under 0.000847 µM.
Still for that read-out and setting: with `Cc1cc(-c2ccn3nc(Nc4ccc(C(=O)NCCO)cn4)cc3c2)c(O[C@H]2C[C@H]3COC[C@@H](C2)N3)cn1` [Example 369, N-(2-hydroxyethyl)-6-[[5-[2-methyl-5-[[(1S,5R,7s)-3-oxa-9-azabicyclo[3.3.1]nonan-7-yl]oxy]-4-pyridyl]pyrazolo[1,5-a]pyridin-2-yl]amino]pyridine-3-carboxamide] the figure was 0.00164 µM.

The term IC50 denotes the concentration that inhibits the measured activity by half.

Source of the values: US20240158392A1 (Janssen Biotech, Inc., priority 2021, published 2024).
